Where two headings read alike, the source gives them in different places. Where only a bound is given, the exact number is not on record here.

Test [1] has as its target PtGSTU19Y160A (Populus trichocarpa, UniProt B9HKX9, Y160A). In words: GSH-conjugation activity toward model substrates, variant. It is filed as biochemical. The settings on record: PtGSTU19 Y160A, fixed saturating GSH, mean ± S.D.; for k cat: n = 3; for Km: n = 3, read-out: apparent KM.
Description: (§2) Peroxidase activity toward hydroperoxides was measured using an NADPH coupled spectrophotometric assay ([Pégeot et al., 2014]).
(§3) The measured velocities were corrected by subtracting the rate of the spontaneous nonenzymatic reaction, and three independent experiments were performed at each substrate concentration.
Test [2] deals with PtGSTU19Y160C (Populus trichocarpa, UniProt B9HKX9, Y160C). The test is described as above. It is filed as biochemical. The settings on record: PtGSTU19 Y160C, fixed saturating GSH, mean ± S.D.; for k cat: n = 3; for Km: n = 3, read-out: apparent KM.
Description: as §2, §3
For test [3], the target named is PtGSTU19Y160F (Populus trichocarpa, UniProt B9HKX9, Y160F). The test is described as above. The format is biochemical. Particulars: for k cat / Km: PtGSTU19 Y160F, GSH-conjugation, fixed saturating GSH, mean ± S.D., n = 3; for Km: read-out: apparent KM.
Description: as §2, §3
The target in test [4] is PtGSTU20C160Y (Populus trichocarpa, UniProt D2X9R3, C160Y). The test is described as above. Particulars: PtGSTU19 C160Y in Table S4, fixed saturating GSH, mean ± S.D.; for k cat: n = 3; for Km: n = 3, read-out: apparent KM. The format is biochemical.
Description: as §2, §3
The target in test [5] is T1, PtGSTU19 (Populus trichocarpa, UniProt B9HKX9). In words: GSH-conjugation activity toward model substrates. Particulars: for Catalytic efficiency: PtGSTU19; for k cat / k cat/K m: PtGSTU19, 25°C, fixed 1 mM GSH (0.7 mM with HNE), mean ± S.D., n = 3.
For test [6], the target named is T2, PtGSTU20 (Populus trichocarpa, UniProt D2X9R3). In words: GSH-conjugation activity toward model substrates.
Test [7] addresses T1, PtGSTU19. In words: Competition (inhibition) assay of GSH-conjugation with PITC as substrate. The format is biochemical.
Description: (§4) The measured velocities were corrected by subtracting the rate of the spontaneous nonenzymatic reaction, and three independent experiments were performed at each substrate concentration. The kinetic parameters (k cat and apparent K m) and the inhibition constants (K i) were, respectively, obtained by fitting the data to the nonlinear regression Michaelis–Menten model (kinetic assays) and to the mixed inhibition model (inhibition assays) in GraphPad Prism 8 software ([Copeland, 2013]).
The target in test [8] is T2, PtGSTU20. The description is as above. It is filed as biochemical.
Description: as §4
For test [9], the target named is T1, PtGSTU19. In words: Thermal shift assay (SYPRO orange). It is filed as binding. As to the method:
(§1) Assays were performed in a mixture (final volume of 25 µL) containing 30 mM Tris-HCl pH 8.0, 100 µM of chemical compounds (diluted in 8% DMSO) originating from a chemical library (Supplementary Tables S2, S3), 20 µM of PtGSTU19 or 20, and 5X SYPRO orange. […] The denaturation temperature, which corresponds to the temperature at which 50% of the total fluorescence is measured, was determined by the nonlinear regression Boltzmann sigmoidal model in GraphPad Prism 8 software for data obtained in the presence of potential ligands. This temperature was compared with a reference assay in which organic compounds were replaced by an equivalent DMSO concentration.

In test [10] the target is T2, PtGSTU20. Briefly: Thermal shift assay (SYPRO orange). It is filed as binding. On the procedure:
as §1

Test [11] concerns the target T1, PtGSTU19. Briefly: Peroxidase activity, NADPH coupled spectrophotometric assay. The format is biochemical. Particulars: enzyme concentration increased up to 10 µM.
Description: as §2, §4
Test [12] concerns the target T2, PtGSTU20. The test is described as above. The format is biochemical. The settings on record: enzyme concentration increased up to 10 µM.
Description: as §2, §4
Where [13] appears, read: 25°C, fixed 1 mM GSH (0.7 mM with HNE), mean ± S.D., n = 3.
The mark [14] stands for this setting: read-out: ΔTd (denaturation temperature difference), PtGSTU19 20 µM, compound 100 µM, vs DMSO reference, flavonoid set (Table S3, Figure 4).
[15] abbreviates: read-out: ΔTd (denaturation temperature difference), PtGSTU19 apo form 20 µM, compound 100 µM, vs DMSO reference, first chemical library screen (Table S2, Figure S9).
Setting [16] is: read-out: ΔTd (denaturation temperature difference), PtGSTU20 20 µM, compound 100 µM, vs DMSO reference, flavonoid set (Table S3, Figure 4).
Setting [17] is: read-out: ΔTd (denaturation temperature difference), PtGSTU20 apo form 20 µM, compound 100 µM, vs DMSO reference, first chemical library screen (Table S2, Figure S9).
Where [18] appears, read: read-out: ΔTd (denaturation temperature difference).
Setting [19] is: PtGSTU19 apo form 20 µM, compound 100 µM, vs DMSO reference, first chemical library screen (Table S2, Figure S9).
The mark [20] stands for this setting: PtGSTU20 apo form 20 µM, compound 100 µM, vs DMSO reference, first chemical library screen (Table S2, Figure S9).
Setting [21] is: PtGSTU19 20 µM, compound 100 µM, vs DMSO reference, flavonoid set (Table S3, Figure 4), read-out: ΔTd (denaturation temperature difference).
[22] abbreviates: PtGSTU20 20 µM, compound 100 µM, vs DMSO reference, flavonoid set (Table S3, Figure 4), read-out: ΔTd (denaturation temperature difference).

PtGSTU19Y160C, sequence (B9HKX9 2-219 Y160C): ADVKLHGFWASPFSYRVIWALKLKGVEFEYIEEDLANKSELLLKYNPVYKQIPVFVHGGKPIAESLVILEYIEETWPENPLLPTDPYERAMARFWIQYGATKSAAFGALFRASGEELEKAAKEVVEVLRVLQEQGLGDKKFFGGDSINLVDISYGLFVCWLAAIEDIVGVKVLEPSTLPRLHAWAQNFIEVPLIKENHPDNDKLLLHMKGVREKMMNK
PtGSTU19Y160A, sequence (B9HKX9 2-219 Y160A): as the sequence (B9HKX9 2-219 Y160C) above, with C159A counted along it
T1 sequence (B9HKX9 entry or part of it): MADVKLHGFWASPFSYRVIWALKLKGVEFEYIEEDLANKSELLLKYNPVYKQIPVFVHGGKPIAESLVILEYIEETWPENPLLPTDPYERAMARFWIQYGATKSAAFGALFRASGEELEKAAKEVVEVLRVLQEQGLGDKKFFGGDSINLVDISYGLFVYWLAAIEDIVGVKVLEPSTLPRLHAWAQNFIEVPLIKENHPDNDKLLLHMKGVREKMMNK
T2 sequence (D2X9R3 entry or part of it): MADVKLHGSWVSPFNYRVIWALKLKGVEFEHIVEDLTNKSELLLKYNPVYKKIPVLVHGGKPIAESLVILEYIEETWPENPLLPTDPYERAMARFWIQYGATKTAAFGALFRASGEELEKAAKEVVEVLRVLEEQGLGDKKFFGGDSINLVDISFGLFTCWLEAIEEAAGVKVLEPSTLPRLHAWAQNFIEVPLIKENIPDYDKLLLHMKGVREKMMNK
PtGSTU19Y160F, sequence (B9HKX9 2-219 Y160F): as the sequence (B9HKX9 2-219 Y160C) above, with C159F counted along it
PtGSTU20C160Y, sequence (D2X9R3 2-219 C160Y): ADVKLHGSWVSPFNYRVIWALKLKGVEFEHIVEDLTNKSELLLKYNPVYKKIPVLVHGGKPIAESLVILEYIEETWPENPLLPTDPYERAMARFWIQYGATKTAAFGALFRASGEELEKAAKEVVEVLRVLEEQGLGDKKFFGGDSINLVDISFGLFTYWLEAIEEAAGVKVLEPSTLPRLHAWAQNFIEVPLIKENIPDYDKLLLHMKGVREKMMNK

On to `S=C=NCc1ccccc1` [BITC, benzyl-isothiocyanate], for which the k cat in test [1] is 6.5 ± 0.2 s⁻¹; in [2], 6.7 ± 0.1 s⁻¹; in test [3], 8.3 ± 0.2 s⁻¹; in test [4] it was 4.9 ± 0.1 s⁻¹; in test [5], 7.0 ± 0.1 s⁻¹; in test [6] (setting [13]), 10.4 ± 0.3 s⁻¹. In addition, the Km in [1] came to 30.6 ± 4.5 µM; in [2], 54.1 ± 3.3 µM; in test [3] it was 36.3 ± 3.3 µM; in test [4] it was 71.4 ± 9.6 µM. The compound also yielded a Catalytic efficiency in test [5] of 132200 M⁻¹ s⁻¹.

Consider `O=c1cc(-c2ccccc2)oc2cc(O)c(O)c(O)c12` [Baicalein], for which the Ki in test [7] worked out at 35.2 ± 2.8 µM; in test [8], 7.1 ± 0.6 µM. In addition, the ΔTm at 100 µM in test [9] (setting [14]) was 0.73 ± 0.2 °C; in test [9] (setting [15]) it was greater than 4 °C; in test [10] (setting [16]) it was 3.4 °C; in test [10] (setting [17]), greater than 4 °C.

Regarding `O=[N+]([O-])c1ccc(Cl)c([N+](=O)[O-])c1` [CDNB], the k cat in test [1] was found to be 7.2 ± 0.9 s⁻¹; in [2], 14.0 ± 1.2 s⁻¹; in [3], 17.3 ± 1.0 s⁻¹; in test [4], 0.59 ± 0.03 s⁻¹; in test [5], 28.8 ± 2.2 s⁻¹; in test [6] (setting [13]), 0.59 ± 0.03 s⁻¹. Moreover, the Km in test [1] was found to be 7040 ± 1380 µM; in test [2] it was 4160 ± 620 µM; in test [3], 3670 ± 390 µM; in test [4], 2250 ± 229 µM; in [5] (read-out: apparent K m, PtGSTU19, 25°C, fixed 1 mM GSH (0.7 mM with HNE), mean ± S.D., n = 3), 3390 ± 502 µM; in [6] (read-out: apparent K m, 25°C, fixed 1 mM GSH (0.7 mM with HNE), mean ± S.D., n = 3), 1780 ± 193 µM. Besides, the “k cat/K m” value in test [5] is on record as 8.9 ± 0.8 10^3 M^-1s^-1; in [6] (setting [13]) it was 0.33 ± 0.01 10^3 M^-1s^-1. The “Catalytic efficiency of PtGSTU19 relative to PtGSTU20” value in test [5] (PtGSTU19 higher than PtGSTU20) amounted to 30 times. In [6], this compound showed a Catalytic efficiency of 300 M⁻¹ s⁻¹.

With `O=c1cc(-c2ccccc2)oc2cc(O)cc(O)c12` [Chrysin], the ΔTm at 100 µM in test [9] (setting [18]) was -0.05 ± 0.07 °C; in test [10] (setting [18]), 2.07 °C.

On to `N[C@@H](CCC(=O)N[C@@H](CS)C(=O)NCC(=O)O)C(=O)O` [GSH, glutathione], for which the “ΔTd (denaturation temperature difference)” value in test [9] (setting [19]) is on record as “little or no change”. Besides, in [10] (setting [20]), the “ΔTd (denaturation temperature difference)” value is listed as “little or no change”. Besides, in [3], the “apparent affinity for glutathione, reduced by a factor” value is 4 and the “variation of apparent affinity for glutathione” value is on record as “no variation”.

For the compound `O=c1c(O)c(-c2ccccc2)oc2cc(O)cc(O)c12` [Galangin], the results for the Ki in test [7] (read-out: K i) and in test [8] (read-out: K i) were 157 ± 28.7 µM and 43.8 ± 0.6 µM, respectively. Besides, the ΔTm at 100 µM in test [9] (setting [21]) is 1.59 ± 0.29 °C; in [10] (setting [22]), 7.42 °C. For the same compound, the “ΔTd (denaturation temperature difference)” value in test [10] (PtGSTU20 20 µM, compound 100 µM, vs DMSO reference, flavonoid set (Table S3, Figure 4), 100 µM) is 5.89 ± 0.64 °C.

In the case of `OO` [H2O2, hydrogen peroxide], the “Peroxidase activity (active on the peroxide)” value in test [11] and in test [12] was “not” throughout.

Take `CCCCCC(O)C=CC=O` (centres unmarked) [HNE, 4-hydroxy-2-nonenal]: in test [5], the Catalytic efficiency was found to be 2000 M⁻¹ s⁻¹.

For `O=c1c(O)c(-c2ccc(O)cc2O)oc2cc(O)cc(O)c12` [Morin], the Ki came out at 72.9 ± 5.3 µM in test [7] and 16 ± 0.9 µM in test [8]. In addition, the ΔTm at 100 µM was 0.37 ± 0.16 °C in test [9] (setting [14]), greater than 4 °C in test [9] (setting [15]), 4.36 °C in test [10] (setting [16]) and greater than 4 °C in test [10] (setting [17]).

Take `S=C=NCCc1ccccc1` [PITC, phenethyl-isothiocyanate]: the k cat in [1] was found to be 2.3 ± 0.03 s⁻¹; in test [2], 3.05 ± 0.05 s⁻¹; in test [3] it was 3.9 ± 0.07 s⁻¹; in [4], 2.03 ± 0.08 s⁻¹; in test [5], 3.8 ± 0.1 s⁻¹; in test [6] (setting [13]) it was 5.1 ± 0.1 s⁻¹. Further, the Km amounted to 49.2 ± 2.6 µM in test [1], 40.3 ± 3 µM in test [2], 31.1 ± 2.5 µM in test [3] and 58.3 ± 9.2 µM in test [4]. The same compound had a Catalytic efficiency in [6] of 88900 M⁻¹ s⁻¹.

As to `CCCC(=O)Oc1ccc([N+](=O)[O-])cc1` [PNP-butyrate, 4-nitrophenyl-butyrate], in test [5], the Catalytic efficiency was 100 M⁻¹ s⁻¹, the k cat is 0.040 ± 0.001 s⁻¹ and the “k cat/K m” value was 0.100 ± 0.002 10^3 M^-1s^-1. Also, the Catalytic efficiency in test [6] was found to be 100 M⁻¹ s⁻¹. Also, in test [6] (setting [13]), the k cat was 0.020 ± 0.001 s⁻¹.

As for `O=C1C[C@@H](c2ccccc2)Oc2cc(O)cc(O)c21` [Pinocembrin], the Ki stood at 152 ± 13.5 µM in test [7] (read-out: K i) and 61.2 ± 10.5 µM in test [8] (read-out: K i). Moreover, the figures for the ΔTm at 100 µM in test [9] (setting [21]) and in test [10] (setting [22]) were -0.01 ± 0.12 °C and 1.68 °C, respectively.

Consider `O=c1cc(-c2ccc(O)cc2)oc2cc(O)cc(O)c12` [apigenin], for which the ΔTm at 100 µM in test [10] (setting [18]) was 1.41 °C.

With `O=C(/C=C/c1ccc(O)c(O)c1)c1ccc(O)cc1O` [butein], the ΔTm at 100 µM in test [10] (setting [22]) stood at 2.32 °C.

For `O=C(CCc1ccc(O)cc1)c1c(O)cc(O)cc1O` [phloretin], the ΔTm at 100 µM in test [10] (setting [22]) came to 3.11 °C.

Take `O=c1c(O)c(-c2ccc(O)c(O)c2)oc2cc(O)cc(O)c12` [quercetin]: the ΔTm at 100 µM in [9] (setting [18]) and in test [10] (setting [18]) was greater than 4 °C throughout.

For the compound `CC(C)(C)OO` [t-BOOH, tert-butyl hydroperoxide], the “Peroxidase activity (active on the peroxide)” value in test [11] and in test [12] was “not” in each case.

Take `COc1c(O)cc(O)c2c(=O)cc(-c3ccccc3)oc12` [wogonin]: the ΔTm at 100 µM in test [10] (setting [16]) is 5.17 °C.

For the compound “glutathionyl-phenylacetophenone [GS-PAP]”, the Ki in test [7] (PtGSTU19, GSH-conjugating reaction with PITC as substrate, mixed model inhibition, ND = no inhibition was detected, read-out: K i) came to 2.3 ± 0.8 µM; in [8] (PtGSTU20, GSH-conjugating reaction with PITC as substrate, mixed model inhibition, ND = no inhibition was detected, read-out: K i), 5.1 ± 2.1 µM. Further, the “ΔTd (denaturation temperature difference)” value is 4.99 ± 0.28 °C in [9] (PtGSTU19 20 µM, compound 100 µM, vs DMSO reference, flavonoid set (Table S3, Figure 4)); “+8.39 °C” in [9] (setting [19]); 6.48 ± 0.17 °C in [10] (PtGSTU20 20 µM, compound 100 µM, vs DMSO reference, flavonoid set (Table S3, Figure 4)); “+9.62 °C” in test [10] (setting [20]).

oxidized glutathione [GSSG]: the “ΔTd (denaturation temperature difference)” value in test [9] (setting [19]) and in test [10] (setting [20]) was “little or no change” in each case.

These data come from paper PMC9412104, “Biochemical and Structural Insights on the Poplar Tau Glutathione Transferase GSTU19 and 20 Paralogs Binding Flavonoids” (Frontiers in Molecular Biosciences, 2022).
